Our source for the IC50 values is the Kinase Knowledgebase extract (Sharma et al. 2016).

pIC50: −log10 of the molar value.

Test [1] addresses MAPK14 (human) (UniProt Q16539). In words: Inhibition of TNF-alpha Production in LPS-Stimulated PBMCs. Particulars: pbmc.
For test [2] the target is unchanged. In words: Inhibition of IL-1 Production in LPS-Stimulated PBMCs. Particulars: pbmc.
Test [3] shares this target. In words: Inhibition of IL-1 Production in Whole Blood.
For test [4] the target is unchanged. As to the kind of experiment: Inhibition of TNF Production in Whole Blood.
Test [5] has the same target. As to the kind of experiment: Inhibition of IL-6 Production in Whole Blood.

Chain of MAPK14 (human) (Q16539 whole entry, looked up): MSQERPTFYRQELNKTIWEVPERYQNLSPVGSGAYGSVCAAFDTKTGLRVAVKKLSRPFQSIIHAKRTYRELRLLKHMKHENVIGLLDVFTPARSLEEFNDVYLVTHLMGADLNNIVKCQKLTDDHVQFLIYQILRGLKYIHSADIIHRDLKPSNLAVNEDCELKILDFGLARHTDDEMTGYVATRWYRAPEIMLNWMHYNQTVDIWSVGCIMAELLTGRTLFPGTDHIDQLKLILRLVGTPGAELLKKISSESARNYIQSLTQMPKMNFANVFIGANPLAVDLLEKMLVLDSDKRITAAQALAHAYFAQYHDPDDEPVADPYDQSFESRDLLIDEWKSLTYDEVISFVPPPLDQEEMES

The pIC50 is the IC50 on a negative log10 scale, so that one unit is a factor of ten. Higher therefore signals a low IC50. With `COc1ccccc1-c1c(=O)ncn2nc(Sc3ccccc3)ccc12`, the negative-log IC50 (pIC50) in test [1] and in test [2] was less than 6.30 in each case.
Turning to `CN(C)C(=O)c1ccccc1Sc1ccc2c(-c3c(Cl)cccc3Cl)c(=O)ncn2n1`, the negative logarithm of the IC50 (pIC50) in test [1] and in test [2] was less than 6.30 each time.
For the compound `Cc1cc(F)ccc1-c1cccc(C(C(N)=O)c2c(Cl)cccc2Cl)n1` (stereo unspecified), the pIC50 in test [3], in test [4] and in test [5] was less than 6.30 in each case.
With `CC(C)c1ccccc1Sc1ccc2c(-c3c(Cl)cccc3Cl)c(=O)ncn2n1`, the negative logarithm of the IC50 (pIC50) in test [1] and in test [2] was less than 6.30 each time.
Regarding `CN(C)C=Nc1ccc(C2=C3C=CC(Sc4ccc(F)cc4Cl)=NN3CNC2=O)c(Cl)c1`, the pIC50 in test [3] is 6.30 to 6.60; in test [4], less than 6.30; in test [5], 6.30 to 6.60.
For the compound `COc1ccc(-c2cccc(C(C(N)=O)c3c(Cl)cccc3Cl)n2)cc1` (stereo unspecified), the negative-log IC50 (pIC50) in test [2] is less than 6.30.
`NC(=O)C(c1ccc(C(O)c2ccccc2)cn1)c1c(Cl)cccc1Cl` (stereo unspecified) showed a pIC50 in test [2] of 6.30 to 7.00.
Take `O=c1ncn2nc(Sc3ccccc3)ccc2c1-c1ccccc1Cl`: the pIC50 in test [1] and in test [2] was less than 6.30 each time.
On to `Cc1ccccc1SC1=NN2CNC(=O)C(c3c(Cl)cccc3Cl)=C2C=C1`, for which the pIC50 was less than 6.30 in test [3] and 6.30 to 6.60 in test [5].
Turning to `NC(=O)C(c1cccc(-c2ccccc2C=NO)n1)c1c(Cl)cccc1Cl` (stereo unspecified), the pIC50 in test [3], in test [4], in test [1] and in test [5] was less than 6.30 in each case.
For the compound `Nc1cc(C(F)(F)F)ccc1SC1=NN2CNC(=O)C(c3c(Cl)cccc3Cl)=C2C=C1`, the negative-log IC50 (pIC50) in test [1] is less than 6.30; in test [2], 6.30 to 7.00.
On to `NC(=O)N(c1cccc(-c2ccc(F)cc2)n1)c1c(F)cccc1F`, for which the pIC50 in test [3], in test [4] and in test [5] was less than 6.30 throughout.
Take `O=c1ncn2nc(Sc3ccccc3)ccc2c1-c1c(F)cccc1F`: the negative-log IC50 (pIC50) in test [1] and in test [2] was less than 6.30 in each case.
For `Cc1ccc(Sc2ccc3c(-c4c(Cl)cccc4Cl)c(=O)ncn3n2)cc1`, the negative-log IC50 (pIC50) in test [1] was less than 6.30; in test [2] it was 6.30 to 7.00.
Take `NC(=O)Nc1cc(F)ccc1SC1=NN2CNC(=O)C(c3c(Cl)cccc3Cl)=C2C=C1`: the pIC50 in test [1] and in test [2] was less than 6.30 in each case.
Take `Cc1cc(F)ccc1-c1cccc(N(C(N)=O)c2c(F)cccc2F)n1`: the pIC50 in test [3], in test [4] and in test [5] was 6.30 to 6.60 each time.
Consider `Nc1ccc(Cl)c(C2=C3C=CC(Sc4ccc(F)cc4)=NN3CNC2=O)c1Cl`, for which the pIC50 in test [3], in test [4] and in test [5] was less than 6.30 in each case.
For the compound `NC(=O)C(c1ccc(C(=O)c2ccccc2)cn1)c1c(Cl)cccc1Cl` (stereo unspecified), the pIC50 in test [2] was less than 6.30.
For `O=C1NCN2N=C(Sc3ccccc3CO)C=CC2=C1c1c(Cl)cccc1Cl`, the pIC50 in test [3] was 6.30 to 6.60; in test [4], greater than 6.60; in test [5], greater than 6.60.
With `NC(=O)C(c1cccc(-c2ccccc2CO)n1)c1c(Cl)cccc1Cl` (stereo unspecified), the negative-log IC50 (pIC50) in test [3], in test [4] and in test [5] was less than 6.30 in each case.
In test [1], `COc1cc(Cl)c(C2=C3C=CC(Sc4ccc(F)cc4)=NN3CNC2=O)cc1OC` had a negative logarithm of the IC50 (pIC50) of less than 6.30.
Regarding `O=C(CN1CCOCC1)Nc1ccc(C2=C3C=CC(Sc4ccc(F)cc4)=NN3CNC2=O)c(Cl)c1`, the pIC50 in test [3] is less than 6.30; in test [4] it was less than 6.30; in test [5] it was 6.30 to 6.60.
As for `COc1ccc(C2=C3C=CC(Sc4ccc(F)cc4)=NN3CNC2=O)c(Cl)c1`, the pIC50 in test [3], in test [4], in test [1] and in test [5] was less than 6.30 each time.
For the compound `CC(=O)Nc1ccc(C2=C3C=CC(Sc4ccc(F)cc4)=NN3CNC2=O)c(Cl)c1`, the negative logarithm of the IC50 (pIC50) in test [3], in test [4] and in test [5] was less than 6.30 in each case.
As for `Nc1ccccc1SC1=NN2CNC(=O)C(c3c(Cl)cccc3Cl)=C2C=C1`, the negative-log IC50 (pIC50) in test [3], in test [4] and in test [5] was less than 6.30 in each case.
Regarding `O=C(CCl)Nc1ccc(C2=C3C=CC(Sc4ccc(F)cc4)=NN3CNC2=O)c(Cl)c1`, the pIC50 in test [3], in test [4] and in test [5] was less than 6.30 each time.
As to `N#Cc1ccccc1SC1=NN2CNC(=O)C(c3c(Cl)cccc3Cl)=C2C=C1`, the pIC50 in test [3], in test [4] and in test [5] was less than 6.30 throughout.
Consider `Cc1ccccc1-c1cccc(N(C(N)=O)c2c(Cl)cccc2Cl)n1`, for which the pIC50 in test [3], in test [4] and in test [5] was less than 6.30 throughout.
`NC(=O)C(c1cccc(-c2ccccc2CNCCO)n1)c1c(Cl)cccc1Cl` (stereo unspecified): the pIC50 in test [1] and in test [2] was less than 6.30 throughout.
On to `O=C1NCN2N=C(Sc3ccc(F)cc3Cl)C=CC2=C1c1cc2c(cc1Cl)OCO2`, for which the negative logarithm of the IC50 (pIC50) in test [3] is less than 6.30; in test [4], less than 6.30; in test [5] it was 6.30 to 6.60.
Turning to `Cc1c(Sc2ccccc2)nn2cnc(=O)c(-c3c(Cl)cccc3Cl)c2c1C`, the negative-log IC50 (pIC50) in test [1] and in test [2] was less than 6.30 throughout.
